# Laboratory results: patent US10597388B2, “Pyridazinone herbicides” (FMC CORPORATION, priority 2014, dated 2020)
# What was measured:
# Format in all cases: in vivo
# [1] = tested on: galium (catchweed bedstraw, Galium aparine); experiment: Test A greenhouse herbicide test, postemergence
# In short: (§1)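 Pot-grown plants (loam soil/sand blend), 2–10 cm tall at the one- to two-leaf stage, received postemergence sprays of formulated test chemical. After about 10 d in the greenhouse, injury was rated visually against untreated controls on a 0 (no effect) to 100 (complete control) scale.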
# [2] = tested on: blackgrass (Alopecurus myosuroides); experiment: Test A greenhouse herbicide test, postemergence
# In short: as §1
# [3] = tested on: pigweed (Amaranthus retroflexus); experiment: Test C greenhouse herbicide test, pre- and postemergence
# In short: (§2)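 Visual ratings on a 0 to 100 scale (0 = no effect, 100 = complete control) versus untreated controls, scored 13–15 d after treatment. Soil-applied preemergence to seeded loam/sand; foliar postemergence to 1- to 4-leaf plants (2–18 cm) in peat-vermiculite mix; compounds formulated in solvent plus surfactant.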
# [4] = tested on: ragweed (common ragweed, Ambrosia elatior); experiment: as above
# In short: as §2
# [5] = tested on: nutsedge, yellow (yellow nutsedge, Cyperus esculentus); experiment: as above
# In short: as §2
# [6] = tested on: ryegrass, Italian (Italian ryegrass, Lolium multiflorum); experiment: as above
# In short: as §2
# [7] = tested on: galium (catchweed bedstraw, Galium aparine); experiment: as above
# In short: as §2
# [8] = tested on: barnyardgrass (Echinochloa crus-galli); experiment: as above
# In short: as §2
# [9] = tested on: soybean (Glycine max); experiment: as above
# In short: as §2
# [10] = tested on: velvetleaf (Abutilon theophrasti); experiment: as above
# In short: as §2
# [11] = tested on: blackgrass (Alopecurus myosuroides); experiment: as above
# In short: as §2
# [12] = tested on: kochia (Kochia scoparia); experiment: Test C greenhouse herbicide test, postemergence; conditions: Postemergence
# In short: (§3)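 Greenhouse postemergence spray on plants 2–18 cm tall; response judged visually after 13–15 d relative to untreated controls using a 0 (none) to 100 (full control) scale.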
# [13] = tested on: chickweed (common chickweed, Stellaria media); experiment: Test C greenhouse herbicide test, postemergence; conditions: for Plant response rating, Chickweed: Postemergence
# In short: as §3
# [14] = tested on: oat, wild (wild oat, Avena fatua); experiment: Test C greenhouse herbicide test, postemergence; conditions: Postemergence
# In short: as §3
# [15] = 125 g ai/ha, 0 to 100 scale where 0 is no effect and 100 is complete control
# [16] = Postemergence, 31 g ai/ha, scale 0 to 100 (0 no effect, 100 complete control)
# [17] = Postemergence, 125 g ai/ha, scale 0 to 100, 0 is no effect, 100 is complete control
# [18] = Postemergence, 250 g ai/ha, scale 0 to 100, 0 no effect, 100 complete control, 13 to 15 d
# [19] = Preemergence, 31 g ai/ha, scale 0 to 100, 0 is no effect, 100 is complete control
# [20] = Preemergence, 62 g ai/ha, scale 0 to 100, 0 is no effect, 100 is complete control
# [21] = Preemergence, 125 g ai/ha, scale 0 to 100, 0 is no effect, 100 is complete control
# [22] = Preemergence, 250 g ai/ha, scale 0 to 100, 0 no effect, 100 complete control
# [23] = postemergence, 62 g ai/ha, scale 0 to 100, 0 no effect, 100 complete control
# [24] = 31 g ai/ha, scale 0 to 100 (0 no effect, 100 complete control)
# [25] = 125 g ai/ha, scale 0 to 100, 0 is no effect, 100 is complete control
# [26] = 250 g ai/ha, scale 0 to 100, 0 no effect, 100 complete control, 13 to 15 d
structure (smiles),measurement,setting,value
Cc1ccc2ccccc2c1-c1c(O)c(C(F)(F)F)nn(C)c1=O [Compound 102],"Plant response rating, Galium",[1]; [15],100
same,"Plant response rating, Galium","[1]; 500 g ai/ha, visual rating after approx. 10 d, 0 to 100 scale (0 no effect, 100 complete control)",100
same,"Plant response rating, Blackgrass",[2]; [15],20
same,Blackgrass plant response rating,"[2]; 500 g ai/ha, 0 to 100 scale, 0 is no effect, 100 is complete control",70
same,"Plant response rating, Pigweed",[3]; [16],75
same,"Plant response rating, Pigweed",[3]; [17],95
same,"Plant response rating, Pigweed",[3]; [18],100
same,"Plant response rating, Pigweed",[3]; [19],75
same,"Plant response rating, Pigweed",[3]; [20],85
same,"Plant response rating, Pigweed",[3]; [21],98
same,Pigweed plant response rating,[3]; [22],100
same,"Plant response rating, Ragweed",[4]; [16],95
same,"Plant response rating, Ragweed",[4]; [17],100
same,"Plant response rating, Ragweed",[4]; [18],100
same,"Plant response rating, Ragweed",[4]; [19],70
same,"Plant response rating, Ragweed",[4]; [20],75
same,"Plant response rating, Ragweed",[4]; [21],90
same,Ragweed plant response rating,[4]; [22],100
same,"Plant response rating, Nutsedge, Yellow",[5]; [16],20
same,"Plant response rating, Nutsedge, Yellow",[5]; [17],60
same,"Plant response rating, Nutsedge, Yellow",[5]; [18],75
same,"Plant response rating, Nutsedge, Yellow",[5]; [19],15
same,"Plant response rating, Nutsedge, Yellow",[5]; [20],70
same,"Plant response rating, Nutsedge, Yellow",[5]; [21],75
same,"Nutsedge, Yellow plant response rating",[5]; [22],75
same,"Plant response rating, Ryegrass, Italian",[6]; [16],0
same,"Plant response rating, Ryegrass, Italian",[6]; [17],25
same,"Plant response rating, Ryegrass, Italian",[6]; [18],30
same,"Plant response rating, Ryegrass, Italian",[6]; [19],15
same,"Plant response rating, Ryegrass, Italian",[6]; [20],25
same,"Plant response rating, Ryegrass, Italian",[6]; [21],50
same,"Ryegrass, Italian plant response rating",[6]; [22],70
same,"Plant response rating, Galium",[7]; [16],90
same,"Plant response rating, Galium",[7]; [17],95
same,"Plant response rating, Galium",[7]; [18],95
same,"Plant response rating, Galium",[7]; [21],95
same,Galium plant response rating,[7]; [22],95
same,"Plant response rating, Barnyardgrass",[8]; [16],20
same,"Plant response rating, Barnyardgrass",[8]; [17],35
same,"Plant response rating, Barnyardgrass",[8]; [18],40
same,"Plant response rating, Barnyardgrass",[8]; [19],5
same,"Plant response rating, Barnyardgrass",[8]; [20],10
same,"Plant response rating, Barnyardgrass",[8]; [21],30
same,Barnyardgrass plant response rating,[8]; [22],85
same,Barnyardgrass plant response rating,[8]; [23],20
same,"Plant response rating, Soybean",[9]; [16],0
same,"Plant response rating, Soybean",[9]; [17],10
same,"Plant response rating, Soybean",[9]; [18],10
same,"Plant response rating, Soybean",[9]; [19],0
same,"Plant response rating, Soybean",[9]; [20],5
same,"Plant response rating, Soybean",[9]; [21],5
same,Soybean plant response rating,[9]; [22],5
same,"Plant response rating, Velvetleaf",[10]; [16],30
same,"Plant response rating, Velvetleaf",[10]; [17],100
same,"Plant response rating, Velvetleaf",[10]; [18],100
same,"Plant response rating, Velvetleaf",[10]; [19],65
same,"Plant response rating, Velvetleaf",[10]; [20],85
same,"Plant response rating, Velvetleaf",[10]; [21],85
same,Velvetleaf plant response rating,[10]; [22],100
same,"Plant response rating, Blackgrass",[11]; [16],0
same,"Plant response rating, Blackgrass",[11]; [17],5
same,"Plant response rating, Blackgrass",[11]; [18],10
same,"Plant response rating, Blackgrass",[11]; [19],0
same,"Plant response rating, Blackgrass",[11]; [20],50
same,"Plant response rating, Blackgrass",[11]; [21],45
same,Blackgrass plant response rating,[11]; [22],70
same,Blackgrass plant response rating,[11]; [23],5
same,"Plant response rating, Kochia",[12]; [24],0
same,"Plant response rating, Kochia",[12]; [25],20
same,"Plant response rating, Kochia",[12]; [26],50
same,"Plant response rating, Chickweed",[13]; [24],95
same,"Plant response rating, Chickweed",[13]; [25],95
same,"Plant response rating, Chickweed",[13]; [26],98
same,Chickweed plant response rating,[13]; [23],95
same,"Plant response rating, Oat, Wild",[14]; [24],5
same,"Plant response rating, Oat, Wild",[14]; [25],10
same,"Plant response rating, Oat, Wild",[14]; [26],25
